Literature values, collected in article PMC2785468, “Androgen Receptor Mutations Associated with Androgen Insensitivity Syndrome: A High Content Analysis Approach Leading to Personalized Medicine” (PLoS ONE, 2009).

Experiments:
P766S = tested on: P766S; design: method as in PMID 7929841; conditions: cited from earlier work
mutant F764L = conditions: transfected CHO cells; cited from earlier work
R840C mutated receptor = conditions: transfected CV1 cells; cited from earlier work
F764L mutation = tested on: F764L mutation; design: method as in PMID 7929841; conditions: MMTV-luc reporter, transfected CV1 cells; cited from earlier work

Structure (SMILES): C[C@]12CCC(=O)C[C@@H]1CC[C@@H]1[C@@H]2CC[C@]2(C)[C@@H](O)CC[C@@H]12 [DHT, dihydrotestosterone]
- transcriptional activity, % of control (P766S): 9%
- Kd (mutant F764L): 0.1 nM
- transcriptional activity, % of control (R840C mutated receptor): 67%
- transcriptional activity (in words) (F764L mutation): significantly decreased transcriptional activity
